Results on five molecules are retold here after ChEMBL document CHEMBL1649567, “Characterization of the plasmid-borne quinolone resistance gene qnrB19 in Salmonella enterica serovar Typhimurium” (2009).

In brackets after ≈: the same amount, converted by molar mass.

Test [1] concerns Salmonella typhimurium. Description: Antimicrobial activity against Salmonella enterica serovar Typhimurium STYM61/9 expressing qnrB19 gene variant carried by IncL/M-like plasmid by Etest. The test is classed as functional, Salmonella enterica subsp. enterica serovar Typhimurium.
Test [2] has as its system Salmonella typhimurium. Put plainly: Antimicrobial activity against Salmonella enterica serovar Typhimurium transconjugant p61/9T expressing qnrB19 gene variant carried by IncL/M-like plasmid by Etest. The test is classed as functional, Salmonella enterica subsp. enterica serovar Typhimurium.
Another test has as its system Escherichia coli. Description: Antimicrobial activity against Escherichia coli CSH26RifR receiving qnrB19 gene variant carried by IncL/M-like plasmid from Salmonella enterica serovar Typhimurium STYM61/9 by Etest. The test is classed as functional.

As for `CCn1cc(C(=O)O)c(=O)c2cc(F)c(N3CCNCC3)cc21` [NORFLOXACIN], the results for the MIC in the test on Salmonella typhimurium [1], with Salmonella typhimurium [2] and against Escherichia coli were 1 µg/mL (≈ 3.13 µM), 0.5 µg/mL (≈ 1.57 µM) and 0.064 µg/mL (≈ 0.2 µM), respectively.
The like results for `CCn1cc(C(=O)O)c(=O)c2ccc(C)nc21` [NALIDIXIC ACID] were, in that order, 12 µg/mL (≈ 51.7 µM), 16 µg/mL (≈ 68.9 µM) and 4 µg/mL (≈ 17.2 µM).
As for `O=C(O)c1cn(C2CC2)c2cc(N3CCNCC3)c(F)cc2c1=O` [CIPROFLOXACIN], the values for the MIC against Salmonella typhimurium [1] and against Salmonella typhimurium [2] were 0.38 µg/mL (≈ 1.15 µM) and 0.19 µg/mL (≈ 0.573 µM), respectively.
On to `CC1COc2c(N3CCN(C)CC3)c(F)cc3c(=O)c(C(=O)O)cn1c23` (centres undefined) [OFLOXACIN], for which the values for the minimal inhibitory concentration (MIC) with Salmonella typhimurium [1], against Salmonella typhimurium [2] and in the test with Escherichia coli were 0.75 µg/mL (≈ 2.08 µM), 0.75 µg/mL (≈ 2.08 µM) and 0.064 µg/mL (≈ 0.177 µM), respectively.
As to `COc1c(N2C[C@@H]3CCCN[C@@H]3C2)c(F)cc2c(=O)c(C(=O)O)cn(C3CC3)c12` [MOXIFLOXACIN], the MIC against Salmonella typhimurium [1] amounted to 0.5 µg/mL (≈ 1.25 µM); with Salmonella typhimurium [2] it was 0.5 µg/mL (≈ 1.25 µM); in the test with Escherichia coli, 0.047 µg/mL (≈ 0.117 µM).

One may read the MIC as the lowest concentration found to suppress growth. Read a high MIC as a need for much substance.
